The record followed here is ChEMBL document CHEMBL1201862, “PubChem BioAssay data set” (2004).

The target of one assay is Beta-galactosidase (Escherichia coli, UniProt Q8VNN2). The class given is functional.
Another assay deals with T1, Exodeoxyribonuclease V (Escherichia coli (strain K12), UniProt P04993+P07648+P08394).
T1 sequence (P04993 whole entry): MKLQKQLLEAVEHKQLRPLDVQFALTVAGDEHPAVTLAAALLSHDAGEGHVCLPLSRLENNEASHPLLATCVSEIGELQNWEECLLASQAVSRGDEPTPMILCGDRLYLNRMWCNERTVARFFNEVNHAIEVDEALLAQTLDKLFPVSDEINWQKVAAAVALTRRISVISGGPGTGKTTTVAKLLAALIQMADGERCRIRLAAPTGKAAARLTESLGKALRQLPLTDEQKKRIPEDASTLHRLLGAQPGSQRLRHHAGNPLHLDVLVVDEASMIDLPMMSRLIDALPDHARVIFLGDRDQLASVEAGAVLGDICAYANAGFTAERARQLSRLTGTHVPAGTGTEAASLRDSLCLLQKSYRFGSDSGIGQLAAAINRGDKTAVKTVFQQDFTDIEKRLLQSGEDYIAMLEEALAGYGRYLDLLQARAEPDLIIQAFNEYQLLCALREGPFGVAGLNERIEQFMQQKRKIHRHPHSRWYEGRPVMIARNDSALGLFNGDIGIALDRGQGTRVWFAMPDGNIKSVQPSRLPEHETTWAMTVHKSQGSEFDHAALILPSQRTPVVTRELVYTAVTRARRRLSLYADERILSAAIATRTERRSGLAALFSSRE
T1 sequence (P07648 whole entry): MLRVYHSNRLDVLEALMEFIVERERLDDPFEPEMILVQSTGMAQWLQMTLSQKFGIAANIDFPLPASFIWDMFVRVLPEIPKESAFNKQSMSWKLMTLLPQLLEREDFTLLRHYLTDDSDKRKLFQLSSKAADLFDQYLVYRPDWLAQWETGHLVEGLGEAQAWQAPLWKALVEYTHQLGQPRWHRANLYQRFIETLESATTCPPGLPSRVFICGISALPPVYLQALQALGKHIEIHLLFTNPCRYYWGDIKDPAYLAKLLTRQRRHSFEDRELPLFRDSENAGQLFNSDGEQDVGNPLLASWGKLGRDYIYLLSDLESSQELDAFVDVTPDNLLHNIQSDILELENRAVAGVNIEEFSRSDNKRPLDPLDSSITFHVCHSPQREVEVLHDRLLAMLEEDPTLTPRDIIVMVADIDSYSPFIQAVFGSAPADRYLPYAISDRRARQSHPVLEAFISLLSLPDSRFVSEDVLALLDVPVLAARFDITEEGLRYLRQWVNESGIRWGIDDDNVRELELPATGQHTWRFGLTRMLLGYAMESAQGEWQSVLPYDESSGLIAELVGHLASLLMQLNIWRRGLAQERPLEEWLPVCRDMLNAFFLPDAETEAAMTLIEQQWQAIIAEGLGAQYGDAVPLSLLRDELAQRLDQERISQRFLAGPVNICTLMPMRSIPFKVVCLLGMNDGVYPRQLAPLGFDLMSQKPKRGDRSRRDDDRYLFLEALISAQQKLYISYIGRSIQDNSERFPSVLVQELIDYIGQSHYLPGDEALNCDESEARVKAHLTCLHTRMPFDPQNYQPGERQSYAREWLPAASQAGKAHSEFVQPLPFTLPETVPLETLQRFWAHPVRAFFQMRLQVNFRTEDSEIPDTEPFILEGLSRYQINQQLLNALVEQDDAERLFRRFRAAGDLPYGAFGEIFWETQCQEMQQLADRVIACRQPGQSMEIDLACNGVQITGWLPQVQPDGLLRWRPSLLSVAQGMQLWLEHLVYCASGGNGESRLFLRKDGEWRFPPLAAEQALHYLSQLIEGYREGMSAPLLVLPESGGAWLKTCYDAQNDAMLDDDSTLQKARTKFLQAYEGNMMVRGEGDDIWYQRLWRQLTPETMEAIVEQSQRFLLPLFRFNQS
T1 sequence (P08394 whole entry): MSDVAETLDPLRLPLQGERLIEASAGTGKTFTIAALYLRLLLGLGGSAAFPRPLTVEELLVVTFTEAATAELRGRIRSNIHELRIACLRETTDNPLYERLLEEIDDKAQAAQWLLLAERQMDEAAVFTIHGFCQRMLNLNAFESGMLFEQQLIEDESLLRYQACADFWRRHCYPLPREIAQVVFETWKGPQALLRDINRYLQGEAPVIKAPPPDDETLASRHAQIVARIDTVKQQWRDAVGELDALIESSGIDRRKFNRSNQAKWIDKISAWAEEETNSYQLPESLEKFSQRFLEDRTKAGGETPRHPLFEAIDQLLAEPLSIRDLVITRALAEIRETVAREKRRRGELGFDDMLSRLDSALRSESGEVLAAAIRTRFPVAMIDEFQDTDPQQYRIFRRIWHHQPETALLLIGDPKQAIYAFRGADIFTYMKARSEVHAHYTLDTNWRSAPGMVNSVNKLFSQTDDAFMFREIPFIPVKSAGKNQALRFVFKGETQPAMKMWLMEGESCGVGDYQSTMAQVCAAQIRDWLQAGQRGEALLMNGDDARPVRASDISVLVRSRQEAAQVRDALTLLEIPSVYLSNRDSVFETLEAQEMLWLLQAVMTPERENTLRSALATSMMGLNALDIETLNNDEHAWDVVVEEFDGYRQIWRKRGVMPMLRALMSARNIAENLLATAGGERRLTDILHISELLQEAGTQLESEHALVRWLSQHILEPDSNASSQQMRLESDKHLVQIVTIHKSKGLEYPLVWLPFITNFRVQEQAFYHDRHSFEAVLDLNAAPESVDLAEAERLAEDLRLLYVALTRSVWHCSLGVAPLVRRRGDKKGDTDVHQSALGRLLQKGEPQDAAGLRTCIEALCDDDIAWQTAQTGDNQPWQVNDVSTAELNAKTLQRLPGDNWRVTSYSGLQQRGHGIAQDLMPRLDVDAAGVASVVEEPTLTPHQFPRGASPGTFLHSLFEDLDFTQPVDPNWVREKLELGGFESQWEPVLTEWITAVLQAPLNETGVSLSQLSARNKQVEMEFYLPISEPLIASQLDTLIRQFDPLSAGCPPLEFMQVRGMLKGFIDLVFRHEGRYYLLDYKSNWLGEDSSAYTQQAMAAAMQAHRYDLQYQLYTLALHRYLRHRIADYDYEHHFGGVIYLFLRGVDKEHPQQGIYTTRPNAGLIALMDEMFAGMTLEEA
As to the kind of experiment: RecBCD inhibition via phage-restricted bacterial growth – absorbance, V66 E. coli, mutant T4 phage, counter-screen for AddAB inhibitor project, dose response (AID 492957). It counts as functional, cell-based, Escherichia coli str. K-12 substr. MG1655. In general terms: Counterscreens check selectivity or assay interference.

Calls of active or inactive are those of the source.

A word on the EC50: it is the concentration at which the effect is half-maximal. Usually IC50 stands for the midpoint of a concentration-inhibition curve.

Beta-galactosidase, sequence (Q8VNN2 whole entry): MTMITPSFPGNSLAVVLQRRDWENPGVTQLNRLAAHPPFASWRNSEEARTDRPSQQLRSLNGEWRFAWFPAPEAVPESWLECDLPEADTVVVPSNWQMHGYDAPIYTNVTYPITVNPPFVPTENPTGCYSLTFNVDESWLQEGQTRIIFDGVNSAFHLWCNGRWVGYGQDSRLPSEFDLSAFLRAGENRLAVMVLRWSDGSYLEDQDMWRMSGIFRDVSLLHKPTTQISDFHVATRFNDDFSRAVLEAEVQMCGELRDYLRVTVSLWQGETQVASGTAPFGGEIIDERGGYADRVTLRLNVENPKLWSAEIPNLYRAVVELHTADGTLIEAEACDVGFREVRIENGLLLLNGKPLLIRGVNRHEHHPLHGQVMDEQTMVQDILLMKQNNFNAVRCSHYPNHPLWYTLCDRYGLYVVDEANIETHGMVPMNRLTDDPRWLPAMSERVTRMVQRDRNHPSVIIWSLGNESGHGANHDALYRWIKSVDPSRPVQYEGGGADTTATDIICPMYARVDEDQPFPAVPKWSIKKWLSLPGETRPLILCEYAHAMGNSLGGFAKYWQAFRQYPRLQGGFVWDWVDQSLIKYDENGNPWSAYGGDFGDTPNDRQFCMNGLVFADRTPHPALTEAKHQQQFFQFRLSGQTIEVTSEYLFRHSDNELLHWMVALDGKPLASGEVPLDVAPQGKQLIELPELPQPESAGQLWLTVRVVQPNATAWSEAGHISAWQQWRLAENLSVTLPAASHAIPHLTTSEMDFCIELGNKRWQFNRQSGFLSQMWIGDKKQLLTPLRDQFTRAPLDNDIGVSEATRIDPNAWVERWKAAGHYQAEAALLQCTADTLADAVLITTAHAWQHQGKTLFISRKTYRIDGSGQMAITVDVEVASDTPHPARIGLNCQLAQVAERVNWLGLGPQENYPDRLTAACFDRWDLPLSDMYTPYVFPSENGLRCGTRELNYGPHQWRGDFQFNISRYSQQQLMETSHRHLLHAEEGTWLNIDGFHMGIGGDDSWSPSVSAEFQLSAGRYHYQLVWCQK

Turning to `COc1cc(NC(=O)Cn2ncc(Cl)c(Cl)c2=O)c(C)cc1[N+](=O)[O-]`, the EC50 on Beta-galactosidase was > 31.5 µM (inactive).

As for `Cc1ccc(C)c(S(=O)(=O)N2CCN(Cc3ccc(O)c4ncccc34)CC2)c1`, the IC50 on Exodeoxyribonuclease V is > 119 µM (inactive).
